The term IC50 denotes the concentration needed to halve the response being measured.

Our source for the IC50 and activation values is US20100056526A1, “HETEROMONOCYCLIC COMPOUND AND USE THEREOF” (Takeda Pharmaceutical Company Limited, priority 2006, published 2010).

One experiment deals with T1, human AT1 receptor (Homo sapiens, UniProt P30556).
T1 construct: expressed in transfected cells; host or cells: CHO-K1
T1 sequence (P30556 1-359): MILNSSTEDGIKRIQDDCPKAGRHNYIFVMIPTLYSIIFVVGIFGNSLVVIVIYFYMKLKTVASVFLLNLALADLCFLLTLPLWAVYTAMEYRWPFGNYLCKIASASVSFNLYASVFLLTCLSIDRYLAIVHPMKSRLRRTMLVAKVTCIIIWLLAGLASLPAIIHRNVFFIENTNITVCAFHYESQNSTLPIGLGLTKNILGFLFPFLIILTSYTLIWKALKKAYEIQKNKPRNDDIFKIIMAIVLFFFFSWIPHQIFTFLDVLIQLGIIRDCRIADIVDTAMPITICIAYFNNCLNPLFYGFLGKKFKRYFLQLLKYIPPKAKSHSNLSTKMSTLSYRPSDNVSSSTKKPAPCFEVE
Description: Binding assay using human AT1 receptor-expressing CHO-K1 cell membrane fraction ([125I]-angiotensin II). To be noted: 22.5 pM [125I]-angiotensin II, 9 μg AT1 membrane, 1 hr room temperature; read-out: AT1 receptor binding inhibitory action (IC50 (nM)). In short, it runs like this: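 CHO-K1 membranes stably expressing AT1 (9 μg) incubated with 22.5 pM [125I]-angiotensin II and compound in 50 mM Tris pH 7.4, 10 mM MgCl2, with or without 0.3 mg/mL fatty acid-free BSA, 1 hr at room temperature. Bound radioactivity counted after GF/C filtration; nonspecific binding with 1 μM CV-11974; IC50 calculated.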

Another experiment deals with T2, PPARγ (Homo sapiens, UniProt P37231).
T2 construct: expressed in transfected cells; host or cells: CHO-K1
T2 sequence (P37231 1-477 isoform P37231-2): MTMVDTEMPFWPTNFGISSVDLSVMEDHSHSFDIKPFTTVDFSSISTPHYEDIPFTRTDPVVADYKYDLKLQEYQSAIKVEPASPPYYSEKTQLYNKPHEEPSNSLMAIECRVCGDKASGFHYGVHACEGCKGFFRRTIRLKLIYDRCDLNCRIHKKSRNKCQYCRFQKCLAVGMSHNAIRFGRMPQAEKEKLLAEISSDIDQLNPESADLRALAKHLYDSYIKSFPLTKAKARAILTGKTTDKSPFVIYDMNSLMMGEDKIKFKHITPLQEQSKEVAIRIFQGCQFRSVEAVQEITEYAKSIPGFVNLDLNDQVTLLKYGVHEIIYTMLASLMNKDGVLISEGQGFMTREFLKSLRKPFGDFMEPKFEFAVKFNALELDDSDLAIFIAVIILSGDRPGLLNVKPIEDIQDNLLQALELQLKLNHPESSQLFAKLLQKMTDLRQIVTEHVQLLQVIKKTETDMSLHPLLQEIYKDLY
T2 sequence (P19793 1-462 partner): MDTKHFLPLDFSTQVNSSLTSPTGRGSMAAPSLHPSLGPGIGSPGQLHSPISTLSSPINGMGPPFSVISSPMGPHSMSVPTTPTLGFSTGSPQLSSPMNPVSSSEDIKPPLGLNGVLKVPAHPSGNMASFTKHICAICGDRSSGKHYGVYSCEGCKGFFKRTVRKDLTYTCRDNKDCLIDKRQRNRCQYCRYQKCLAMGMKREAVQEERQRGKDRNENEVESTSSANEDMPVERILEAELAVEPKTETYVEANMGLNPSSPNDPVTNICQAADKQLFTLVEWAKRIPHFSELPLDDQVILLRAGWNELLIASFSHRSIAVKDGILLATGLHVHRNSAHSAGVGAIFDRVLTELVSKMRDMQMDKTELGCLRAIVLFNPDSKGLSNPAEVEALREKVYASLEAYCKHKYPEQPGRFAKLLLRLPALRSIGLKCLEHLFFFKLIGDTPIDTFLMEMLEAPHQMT
Description: Evaluation of PPARγ activating action (luciferase reporter in PPARγ:RXRα:4ERPP/CHO-K1 cells). Type of experiment: cell-based. The conditions noted are these: CHO-K1, 24 h, read-out: PPARγ activating action (activation % (10^−6 M)). In short, it runs like this:
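CHO-K1 cells stably carrying PPARγ, RXRα and a 4ERPP luciferase reporter were treated with compound for 1 day at 37 °C in F12 medium with 0.1% fatty acid-free BSA. Luciferase activity was read and scaled between no compound (0%) and reference agonist compound X at 1 μM (100%).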
For orientation: Reporter assays use an easily measured gene product as a stand-in for the process of interest.

The mark [1] stands for this setting: test compound 10^−6 M, luciferase activity relative to control compound X (1 μM) = 100%, non-administration group = 0%.

Each structure is given as a SMILES string. Counter-ions that a name gives are not always drawn. Like-named read-outs stand apart in the source and are kept apart here.

With `CCCc1nc(C)n(-c2ccc(OC(C)CC)cc2)c(=O)c1Cc1ccc(-c2ccccc2-c2noc(=O)[nH]2)cc1` (stereo not drawn) [Example 271, 3-(4-sec-butoxyphenyl)-2-methyl-5-{[2′-(5-oxo-4,5-dihydro-1,2,4-oxadiazol-3-yl)biphenyl-4-yl]methyl}-6-propylpyrimidin-4(3H)-one], at human AT1 receptor, the IC50 was 1.9 nM. In addition, the activation at 1 µM at PPARγ (setting [1]) stood at 37.1%.

Turning to `CCCc1nc(C)n(-c2cc(F)c3c(c2)CC(C)(C)O3)c(=O)c1Cc1ccc(-c2ccccc2-c2noc(=O)[nH]2)cc1` [Example 275, 3-(7-fluoro-2,2-dimethyl-2,3-dihydro-1-benzofuran-5-yl)-2-methyl-5-{[2′-(5-oxo-4,5-dihydro-1,2,4-oxadiazol-3-yl)biphenyl-4-yl]methyl}-6-propylpyrimidin-4(3H)-one], the IC50 at human AT1 receptor came out at 1.8 nM. Besides, at PPARγ (setting [1]), the activation at 1 µM was determined as 17%.

As for `CCCc1nc(C)n(-c2ccc(OC(C)CF)cc2)c(=O)c1Cc1ccc(-c2ccccc2-c2noc(=O)[nH]2)cc1` (stereo not drawn) [Example 277, 3-[4-(2-fluoro-1-methylethoxy)phenyl]-2-methyl-5-{[2′-(5-oxo-4,5-dihydro-1,2,4-oxadiazol-3-yl)biphenyl-4-yl]methyl}-6-propylpyrimidin-4(3H)-one], the IC50 at human AT1 receptor came to 1.8 nM. Also, at PPARγ (setting [1]), the activation at 1 µM amounted to 33.5%.

With `CCCc1nc(C)c(Cc2ccccc2)c(=O)n1Cc1ccc(-c2ccccc2-c2noc(=O)[nH]2)cc1` [Example 287, 5-benzyl-6-methyl-3-{[2′-(5-oxo-4,5-dihydro-1,2,4-oxadiazol-3-yl)biphenyl-4-yl]methyl}-2-propylpyrimidin-4(3H)-one], at human AT1 receptor, the IC50 was 1.8 nM. In addition, at PPARγ (setting [1]), the activation at 1 µM was 40.9%.

As to `CCCc1nc(C)n(-c2ccc(OC(C)COC)cc2)c(=O)c1Cc1ccc(-c2ccccc2-c2noc(=O)[nH]2)cc1` (stereo not drawn) [Example 293, 3-[4-(2-methoxy-1-methylethoxy)phenyl]-2-methyl-5-{[2′-(5-oxo-4,5-dihydro-1,2,4-oxadiazol-3-yl)biphenyl-4-yl]methyl}-6-propylpyrimidin-4(3H)-one], on human AT1 receptor, the IC50 turned out to be 1.8 nM. The activation at 1 µM on PPARγ (setting [1]) was 28.2%.

For the compound `CCCCc1nc(C)n(CCCC)c(=O)c1Cc1ccc(-c2ccccc2-c2noc(=O)[nH]2)cc1` [Example 294, 3,6-dibutyl-2-methyl-5-{[2′-(5-oxo-4,5-dihydro-1,2,4-oxadiazol-3-yl)biphenyl-4-yl]methyl}pyrimidin-4(3H)-one], at human AT1 receptor, the IC50 was 1.8 nM. Besides, on PPARγ (setting [1]), the activation at 1 µM stood at 47.1%.

`CCCCc1nc(C2CC2)n(-c2ccccc2)c(=O)c1Cc1ccc(-c2ccccc2-c2noc(=O)[nH]2)cc1` [Example 310, 6-butyl-2-cyclopropyl-5-{[2′-(5-oxo-4,5-dihydro-1,2,4-oxadiazol-3-yl)biphenyl-4-yl]methyl}-3-phenylpyrimidin-4(3H)-one potassium salt]: the IC50 on human AT1 receptor was found to be 1.9 nM. Besides, the activation at 1 µM on PPARγ was determined as 27.1%.

`CCCc1nc(CC)n(-c2ccc3c(c2)CCO3)c(=O)c1Cc1ccc(-c2ccccc2-c2noc(O)n2)cc1` [Example 311, 3-(2,3-dihydro-1-benzofuran-5-yl)-2-ethyl-5-{[2′-(5-oxo-4,5-dihydro-1,2,4-oxadiazol-3-yl)biphenyl-4-yl]methyl}-6-propylpyrimidin-4(3H)-one potassium salt]: the IC50 on human AT1 receptor worked out at 1.6 nM. The activation at 1 µM at PPARγ came out at 38.1%.

As to `CCCc1nc(CC)n(-c2ccc3c(c2)CC(C)O3)c(=O)c1Cc1ccc(-c2ccccc2-c2noc(O)n2)cc1` (stereo not drawn) [Example 312, 2-ethyl-3-(2-methyl-2,3-dihydro-1-benzofuran-5-yl)-5-{[2′-(5-oxo-4,5-dihydro-1,2,4-oxadiazol-3-yl)biphenyl-4-yl]methyl}-6-propylpyrimidin-4(3H)-one potassium salt], the IC50 on human AT1 receptor stood at 1.6 nM. Besides, the activation at 1 µM at PPARγ turned out to be 50.3%.
